Assay [1] relates to human fibroblasts. Put plainly: Senescence-associated beta-galactosidase (SA-β-gal) staining. Particulars: celecoxib 1 μM, nimesulide 20 μM, aspirin 1 mM, ibuprofen 20 μM, flurbiprofen 5 μM. The assay is classed as cell-based. The method, then:
Herein, the senescence-associated β-galactosidase (SA-β-gal) staining was performed in the following manner according to the method of Dimri et al. (1995) (17). […] The cultured cells were seeded on a 35 mm dish, and then stabilized. Then, the cells were washed twice with PBS and fixed with 3% formaldehyde at room temperature for 5 minutes. […] During the progression of the reaction, light was blocked. […] The experiment was independently repeated twice, and the mean value and standard deviation of the measurements were calculated.

Another assay concerns Drosophila. Conditions: long-term administration; reference 15; cited from earlier work.
Assay [2] has as its system human fibroblasts. Put plainly: Regulation of growth rate: number of population doublings (PDs). It is filed as cell-based. Particulars: for reduction of the maximum number of population doublings compared to DMSO: celecoxib 1 μM, nimesulide 20 μM, aspirin 1 mM, ibuprofen 20 μM, flurbiprofen 5 μM; for effect on cellular senescence: conclusion from population doublings and SA-β-gal staining. The method, then: According to the literature of Boyce and Ham (1983), human fibroblasts were isolated from foreskin, and then cultured in a DMEM medium, containing 10% fetal bovine serum (Life Technology Inc., Grand Island, N.Y.), penicillin (100 units/ml) and streptomycin (100 units/ml)). […] Then, the number of the cells was calculated by trypan blue staining, and the number of population doublings (PDs) of the cells was calculated according to the following equation 1: Number of population doublings (PDs)=log(A/B)/log2 [Math Figure 1] wherein A is the number of cells harvested at one passage, and B is the initial cell number at that passage.

Assay [3] concerns human vascular endothelial cells. Conditions: reference 16; cited from earlier work.
For the next assay, the system named is reactive oxygen species. Put plainly: Measurement of reactive oxygen species with DCFH-DA. It is filed as cell-based, human. Conditions: treated for a long period of time (65 days), P29. How it is done: In order to examine the effects of COX-2 inhibitors on cellular senescence, cells were cultured and treated in the same manner as in Example 2, and reactive oxygen in the cells was then measured. The cultured cells were treated with 5 μM DCFH-DA (Invitrogen, Carlsbad, Calif.), and the cells were incubated at 37 C for 45 minutes and then washed with PBS. The washed cells were collected in 1 ml PBS, and then disrupted with ultrasonic waves. The fluorescence of the cells was measured with a fluorescence spectrophotometer (Molecular Devices, Sunnyvale, Calif.), and the measured fluorescence value was corrected with the cell number.

The test system of a further assay is catalase. Put plainly: Western blot, catalase expression. The assay is classed as cell-based, human. Particulars: P28 cells cultured in the presence of inhibitor. In general terms: In western blotting, separated proteins are transferred to a membrane and probed.
The test system of assay [4] is SOD-2 (superoxide dismutase-2). Put plainly: Western blot, SOD-2 expression. Particulars: P28 cells cultured in the presence of inhibitor. It is filed as cell-based, human.
The test system of another assay is total cholesterol. Put plainly: Analysis of intracellular total cholesterol. The assay is classed as cell-based, human. Particulars: corrected with protein concentration. How it is done: In order to examine the effects of COX-2 inhibitors on cellular senescence, cells were cultured and treated in the same manner as in Example 2, and then analyzed for cholesterol. 2×10^6 cells were treated with a mixture of chloroform and methanol (2:1) to extract a fatty component. The amount of total cholesterol in the fatty component was measured at 570 nm using a staining method according to the manual of BioVision (Mountain View, Calif.), and the measured values were corrected with the protein concentration.

For the next assay, the system named is caveolin-1. Put plainly: Western blot, caveolin-1 expression. The assay is classed as cell-based, human. Conditions: for expression of caveolin-1: cells cultured with inhibitor, harvested at each passage; for expression of caveolin-1, short treatment: short period of time (NS-398: 4 hours). The method, then:
(§1) In order to examine the effects of COX-2 inhibitors on cellular senescence, cells were cultured and treated in the same manner as in Example 2, and then subjected to Western blot. The cultured cells were washed and collected in PBS, and then were disrupted in RIPA buffer (150 mM NaCl, 100 mM Tris-HCl, 1% Tween-20, 1% sodium deoxycholate and 0.1% SDS), containing 0.5 mM EDTA, 1 mM PMSF, 10 μg/ml leupeptin, 10 μg/ml aprotinin and 10 μg/ml pepstatin. The disrupted cells were centrifuged, and the supernatant was collected. Proteins in the cell extract were isolated by SDS-PAGE and transferred to nitrocellulose membranes. Then, the proteins were allowed to react with each of p53, p21, COX-1, COX-2 and caveolin-1 antibodies, and the protein-antibody complexes on the nitrocellulose membranes were allowed to react with peroxidase-conjugated anti-mouse or anti-rabbit secondary antibody. Then, the corresponding bands were visualized by chemiluminescence (Amersham Bioscience, Boston, Mass.) using an ECL kit. Herein, the antibodies for p53, p21 and COX-1 were purchased from Oncogene Science (Cambridge, Mass.), Cell Signaling Technology, Inc. (Danvers, Mass.), and Santa Cruz Biotechnology (Santa Cruz, Calif.), respectively, and the antibodies for COX-2 and cavelolin-1 were purchased from BD Bioscience (San Jose, Calif.). Also, β-actin was used as an intracellular control protein to correct the amount of the intracellular total protein.

For the next assay, the system named is p53. Put plainly: Western blot, p53 expression. The assay is classed as cell-based, human. Particulars: cells cultured with inhibitor, harvested at each passage.
The test system of another assay is human promonocytes. Conditions: reference 25; cited from earlier work.
In assay [5] the test system is Gpx-1 (glutathione peroxidase-1). Put plainly: Western blot, Gpx-1 expression. It is filed as cell-based, human. Conditions: P28 cells cultured in the presence of inhibitor.
The subject of a further assay is p21. Put plainly: Western blot, p21 expression. The assay is classed as cell-based, human. Particulars: cells cultured with inhibitor, harvested at each passage. How it is done:
as §1, with “Also, β-actin was used as an intracellular control protein to correct the amount of the intracellular total protein.” left out

The test system of the next assay is caveolin-1 mRNA. Put plainly: RT-PCR, caveolin-1 mRNA. The assay is classed as cell-based, human. Particulars: corrected with GAPDH. How it is done:
In order to examine the effects of COX-2 inhibitors on cellular senescence, cells were cultured and treated in the same manner as in Example 2, and then subjected to RT-PCR. […] The cavelolin-1 gene was amplified using a sense primer ([NT]) and an anti-sense primer ([NT]), and the GAPDH gene was amplified using a sense primer ([NT]) and an anti-sense primer ([NT]). The polymerase chain reaction was performed in the following conditions: 25 cycles of 30 sec at 95 t, 30 sec at 60° C. and 30 sec at 72° C. The resulting DNA products were electrophoresed on 2% agarose gel containing EtBr.

Another assay relates to collagen. Particulars: fibroblasts and hepatic stellate cells; references 24 and 36; cited from earlier work.

SMILES strings stand for the structures. Entries after “also recorded” stand apart in the source; their conditions may differ.

Procedure for p53: In order to examine the effects of COX-2 inhibitors on cellular senescence, cells were cultured and treated in the same manner as in Example 2, and then subjected to Western blot. The cultured cells were washed and collected in PBS, and then were disrupted in RIPA buffer (150 mM NaCl, 100 mM Tris-HCl, 1% Tween-20, 1% sodium deoxycholate and 0.1% SDS), containing 0.5 mM EDTA, 1 mM PMSF, 10 μg/ml leupeptin, 10 μg/ml aprotinin and 10 μg/ml pepstatin. The disrupted cells were centrifuged, and the supernatant was collected. Proteins in the cell extract were isolated by SDS-PAGE and transferred to nitrocellulose membranes. Then, the proteins were allowed to react with each of p53, p21, COX-1, COX-2 and caveolin-1 antibodies, and the protein-antibody complexes on the nitrocellulose membranes were allowed to react with peroxidase-conjugated anti-mouse or anti-rabbit secondary antibody. Then, the corresponding bands were visualized by chemiluminescence (Amersham Bioscience, Boston, Mass.) using an ECL kit. Herein, the antibodies for p53, p21 and COX-1 were purchased from Oncogene Science (Cambridge, Mass.), Cell Signaling Technology, Inc. (Danvers, Mass.), and Santa Cruz Biotechnology (Santa Cruz, Calif.), respectively, and the antibodies for COX-2 and cavelolin-1 were purchased from BD Bioscience (San Jose, Calif.). […]

As for `CC(=O)Oc1ccccc1C(=O)O` [aspirin, acetylsalicylic acid], the “increase of the ratio of SA-β-gal positive cells compared to DMSO” value (“increase of the ratio … to DMSO” below) in the assay on human fibroblasts [1] stood at 1.9 times. Also, in the assay on Drosophila, the “average lifespan of Drosophila” value is reported as “led to a decrease in the average lifespan of the Drosophila or had no effect on the average lifespan”. The “reduction of the maximum number of population doublings compared to DMSO” value (“reduction of the maximum number … to DMSO” below) in the assay on human fibroblasts [2] (PD 24 before treatment) is reported as 7 times. The “effect on cellular senescence” value in the assay with human fibroblasts [2] was “promoted cellular senescence”. Further, the “effect on senescence in human vascular endothelial cells” value in [3] was “inhibited senescence”.
With `Cc1ccc(-c2cc(C(F)(F)F)nn2-c2ccc(S(N)(=O)=O)cc2)cc1` [celecoxib], the “increase of the level of reactive oxygen species” value with reactive oxygen species is given as 1.2 times.
Regarding `CC(C)Cc1ccc(C(C)C(=O)O)cc1` (stereo not shown) [ibuprofen], in the assay with human fibroblasts [1], the “increase of the ratio … to DMSO” value is recorded as 1.7 times. Moreover, the “reduction of the maximum number … to DMSO” value in the assay with human fibroblasts [2] (PD 24 before treatment) was 5 times. Also, in the assay with human fibroblasts [2], the “effect on cellular senescence” value is reported as “promoted cellular senescence”.
Take `COc1ccc2c(c1)c(CC(=O)O)c(C)n2C(=O)c1ccc(Cl)cc1` [indomethacin]: the “average lifespan of Drosophila” value with Drosophila is “led to a decrease in the average lifespan of the Drosophila or had no effect on the average lifespan”. Moreover, the “effect on senescence in human vascular endothelial cells” value in [3] is listed as “promoted senescence”.
Regarding `CS(=O)(=O)Nc1ccc([N+](=O)[O-])cc1Oc1ccccc1` [nimesulide], the “increase of the ratio … to DMSO” value in the assay on human fibroblasts [1] is reported as 1.3 times. Further, in the assay with reactive oxygen species, the “increase of the level of reactive oxygen species” value came to 1.2 times. Further, in the assay with catalase, the expression of catalase entry is “reduced”. Also, the “expression of SOD-2” value in [4] is “reduced”. Further, the “intracellular total cholesterol concentration” value in the assay on total cholesterol was “increased”. In the assay with caveolin-1, the “expression of caveolin-1” value was “increased” and the “expression of caveolin-1, short treatment” value is “did not significantly change”. In addition, the “expression of p53” value in the assay with p53 is given as “increased”. Besides, the “reduction of the maximum number … to DMSO” value in the assay with human fibroblasts [2] (PD 24 before treatment) is reported as “two”. Moreover, the “effect on cellular senescence” value in the assay on human fibroblasts [2] is “promoted cellular senescence”. Besides, the “reactive oxygen species in human promonocytes” value in the assay on human promonocytes is given as “remove reactive oxygen species”. Also, in assay [5], the “expression of Gpx-1” value was “reduced”. The “expression of p21” value in the assay with p21 is “increased”. The “mRNA level of caveolin-1” value in the assay on caveolin-1 mRNA is reported as “increased”.
In the case of `CC(C(=O)O)c1ccc(-c2ccccc2)c(F)c1` (stereo not shown) [flurbiprofen], in the assay with human fibroblasts [1], the “increase of the ratio … to DMSO” value worked out at 1.6 times. The “reduction of the maximum number … to DMSO” value with human fibroblasts [2] (PD 24 before treatment) is recorded as 4 times. Further, the “effect on cellular senescence” value with human fibroblasts [2] is given as “promoted cellular senescence”.
As to `CS(=O)(=O)Nc1ccc([N+](=O)[O-])cc1OC1CCCCC1` [NS-398, N-[2-(cyclohexyloxyl)-4-nitrophenyl]-methanesulfonamide], the “reduction of the level of reactive oxygen species” value with reactive oxygen species is listed as “three”. In addition, the expression of catalase result with catalase is reported as “reduced”. The “expression of SOD-2” value in [4] is reported as “reduced”. Moreover, the “intracellular total cholesterol concentration” value in the assay with total cholesterol is “reduced”. Besides, in the assay on caveolin-1, the “expression of caveolin-1” value is on record as “inhibited the expression of caveolin-1 at all passages” and the “expression of caveolin-1, short treatment” value was “clearly inhibited”. Moreover, the “expression of p53” value in the assay on p53 is “without inhibiting”. In addition, in the assay with human fibroblasts [2] (PD 24 before treatment, NS-398 20 μM), the “increase of the maximum number of population doublings compared to DMSO” value is reported as 7 times. Also, the “effect on cellular senescence” value with human fibroblasts [2] is reported as “inhibited cellular senescence; also recorded: strongly inhibits cellular senescence”. Further, in the assay on human promonocytes, the “reactive oxygen species in human promonocytes” value is on record as “remove reactive oxygen species”. The “expression of Gpx-1” value in assay [5] was “increased”. In the assay with collagen, the expression of collagen entry is on record as “increased”. For the same compound, in the assay with p21, the “expression of p21” value is recorded as “inhibited”. The “mRNA level of caveolin-1” value with caveolin-1 mRNA is “reduced”.
For `O=C(O)c1ccccc1O` [salicylic acid], the “average lifespan of Drosophila” value with Drosophila is given as “led to a decrease in the average lifespan of the Drosophila or had no effect on the average lifespan”.

Source of the values: patent US20100152297A1, “COMPOSITION FOR REGULATING CELLULAR SENESCENCE COMPRISING N-[2-(CYCLOHEXY-LOXYL)-4-NITROPHENYL]-METHANESULFONAMIDE” (priority 2007, published 2010).
